# Data from patent US12403122B2, “Method for treating amyotrophic lateral sclerosis using quercetin-containing compositions” (Quercis Pharma AG, priority 2021, dated 2025).
# “Also recorded” adds a separate entry of the source.
# Assays:
# [1] = system: SOD1G93A mutant rat model of ALS; assay: Immunohistochemical staining of spinal cords after post-paralysis isoquercetin treatment (Example 1); assay type: in vivo; settings: SOD1G93A rats, versus vehicle
# Protocol: Materials and Methods: Animals: Male SOD1G93A progeny were used for further breeding to maintain the line. Rats were housed in a centralized animal facility with a 12-h light-dark cycle with ad libitum access to food and water. Perfusion with fixatives was performed under 90% ketamine-10% xylazine anesthesia and all efforts were made to minimize animal suffering, discomfort, or stress. All procedures using laboratory animals were performed in accordance with the national and international guidelines and were approved by the Institutional Animal Committee for animal experimentation. Male hemizygous NTac:SD-TgN (SOD1-G93A)L26H rats (Taconic), originally developed by Howland et al. (2002), were bred locally by crossing with wild-type nontransgenic Sprague-Dawley female rats.
# Treatment with Isoquercetin: All rats were weighed and evaluated for motor activity daily.
# Fixed spinal cords were removed, postfixed by immersion for 24 h, and then transverse sectioned ([…]) in a Leica cryostat. Serial sections were collected in 100 mM PBS for immunohistochemistry.
# rat model of ALS = settings: downregulation of aberrant glial cells and reactive microglia; cited from earlier work
Compound,number of ventral horn motor neurons expressing misfolded SOD1 and Ubiquitin ([1]; 15 days after paralysis onset),"microgliosis: number of Iba1+ cells in the ventral horn of the lumbar spinal cord ([1]; oral 30 mg/kg/day for 15 days starting after paralysis onset, 30 mg/kg/day)","number of hypertrophic (reactive, GFAP-positive) astrocytes surrounding motor neurons in the lumbar spinal cord ([1]; oral 30 mg/kg/day for 15 days starting after paralysis onset, given together with vitamin C and niacin, 30 mg/kg/day)",paralysis progression (rat model of ALS)
"O=c1c(O[C@@H]2O[C@H](CO)[C@@H](O)[C@H](O)[C@H]2O)c(-c2ccc(O)c(O)c2)oc2cc(O)cc(O)c12 [isoquercetin, quercetin-3-O-β-d-glucopyranoside]",apparently reduced; also recorded: significant reduction,significantly reduced; also recorded: Significant reduction,significantly reduced; also recorded: significant reduction,–
Cc1ccc(NC(=O)c2ccc(CN3CCN(C)CC3)cc2)cc1Nc1nc(-c2cccnc2)cs1 [masitinib],–,–,–,slowed paralysis progression
